Assay results published in ChEMBL document CHEMBL4665917, “Optimization of Versatile Oxindoles as Selective PI3Kδ Inhibitors” (ACS Med Chem Lett, 2020).
Converted amounts (≈) assume the structure as drawn.

What was measured:
[1] = Half life in Wistar-Han rat at 0.5 mg/kg, iv or 1 mg/kg, po; type: ADME, organism-based; conditions: in vivo
[2] = Unbound volume of distribution in Beagle dog at 0.5 mg/kg, iv or 1 mg/kg, po; type: ADME, organism-based, Canis lupus familiaris; conditions: in vivo
[3] = Volume of distribution in Wistar-Han rat at 0.5 mg/kg, iv or 1 mg/kg, po; type: ADME, organism-based; conditions: in vivo
[4] = Unbound volume of distribution in Wistar-Han rat at 0.5 mg/kg, iv or 1 mg/kg, po; type: ADME, organism-based; conditions: in vivo
[5] = Oral bioavailability in Wistar-Han rat at 1 mg/kg; type: ADME, organism-based; conditions: in vivo
[6] = Half life in Beagle dog at 0.5 mg/kg, iv or 1 mg/kg, po; type: ADME, organism-based, Canis lupus familiaris; conditions: in vivo
[7] = Volume of distribution in Beagle dog at 0.5 mg/kg, iv or 1 mg/kg, po; type: ADME, organism-based, Canis lupus familiaris; conditions: in vivo
[8] = Solubility of the compound at pH 7; type: physicochemical; conditions: buffer
cells = conditions: Homo sapiens, HeLa
[9] = Apparent permeability in pig LLC-PK1 cells; type: ADME, cell-based, Sus scrofa
[10] = Oral bioavailability in Beagle dog at 1 mg/kg; type: ADME, organism-based, Canis lupus familiaris; conditions: in vivo
[11] = Intrinsic clearance in Wistar-Han rat at 0.5 mg/kg, iv or 1 mg/kg, po; type: ADME, organism-based; conditions: in vivo
[12] = Clearance in Beagle dog at 0.5 mg/kg, iv or 1 mg/kg, po; type: ADME, organism-based, Canis lupus familiaris; conditions: in vivo
[13] = Clearance in Wistar-Han rat at 0.5 mg/kg, iv or 1 mg/kg, po; type: ADME, organism-based; conditions: in vivo
[14] = Intrinsic clearance in Beagle dog at 0.5 mg/kg, iv or 1 mg/kg, po; type: ADME, organism-based, Canis lupus familiaris; conditions: in vivo
Cytochrome P450 2C8 = molecular target: T1, Cytochrome P450 2C8 (Homo sapiens, UniProt P10632); assay: Inhibition of CYP2C8 (unknown origin); type: ADME
T1 sequence (P10632 whole entry): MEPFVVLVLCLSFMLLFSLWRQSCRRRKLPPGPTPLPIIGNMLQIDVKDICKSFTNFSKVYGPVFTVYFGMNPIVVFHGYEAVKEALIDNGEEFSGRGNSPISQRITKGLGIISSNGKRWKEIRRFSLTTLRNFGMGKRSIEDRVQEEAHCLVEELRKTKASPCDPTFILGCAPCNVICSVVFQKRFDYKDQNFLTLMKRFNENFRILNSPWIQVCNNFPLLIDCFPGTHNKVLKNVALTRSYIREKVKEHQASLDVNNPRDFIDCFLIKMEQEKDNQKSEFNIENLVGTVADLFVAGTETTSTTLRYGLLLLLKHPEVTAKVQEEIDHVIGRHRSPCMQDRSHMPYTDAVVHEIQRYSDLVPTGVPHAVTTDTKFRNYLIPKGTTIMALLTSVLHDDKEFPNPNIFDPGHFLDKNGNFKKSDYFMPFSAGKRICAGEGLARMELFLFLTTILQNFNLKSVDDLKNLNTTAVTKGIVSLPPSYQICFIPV

Cytochrome P450 3A4 = Cytochrome P450 3A4 (Homo sapiens, UniProt P08684); assay: Inhibition of CYP3A4 (unknown origin); type: ADME
Cytochrome P450 3A4, sequence (P08684 whole entry): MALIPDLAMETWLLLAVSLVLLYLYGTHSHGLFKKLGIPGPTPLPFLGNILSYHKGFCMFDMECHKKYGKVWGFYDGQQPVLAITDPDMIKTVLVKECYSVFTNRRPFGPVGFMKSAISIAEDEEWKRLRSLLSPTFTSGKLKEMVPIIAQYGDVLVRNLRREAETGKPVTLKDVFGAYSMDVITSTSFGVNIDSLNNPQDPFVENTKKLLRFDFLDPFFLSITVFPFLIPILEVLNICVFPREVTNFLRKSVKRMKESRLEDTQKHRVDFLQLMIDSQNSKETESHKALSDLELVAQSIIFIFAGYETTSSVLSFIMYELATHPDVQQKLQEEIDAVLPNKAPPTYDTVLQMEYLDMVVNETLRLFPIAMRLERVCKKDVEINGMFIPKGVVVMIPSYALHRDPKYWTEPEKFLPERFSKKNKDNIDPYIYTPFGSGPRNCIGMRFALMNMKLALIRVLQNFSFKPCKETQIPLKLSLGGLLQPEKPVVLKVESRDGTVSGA

[15] = AUC in rat at 200 mg/kg; type: ADME, organism-based; set-up: dose 200 mg/kg; conditions: in vivo
Cytochrome P450 2D6 = Cytochrome P450 2D6 (Homo sapiens, UniProt P10635); assay: Inhibition of CYP2D6 (unknown origin); type: ADME
Cytochrome P450 2D6, sequence (P10635 whole entry): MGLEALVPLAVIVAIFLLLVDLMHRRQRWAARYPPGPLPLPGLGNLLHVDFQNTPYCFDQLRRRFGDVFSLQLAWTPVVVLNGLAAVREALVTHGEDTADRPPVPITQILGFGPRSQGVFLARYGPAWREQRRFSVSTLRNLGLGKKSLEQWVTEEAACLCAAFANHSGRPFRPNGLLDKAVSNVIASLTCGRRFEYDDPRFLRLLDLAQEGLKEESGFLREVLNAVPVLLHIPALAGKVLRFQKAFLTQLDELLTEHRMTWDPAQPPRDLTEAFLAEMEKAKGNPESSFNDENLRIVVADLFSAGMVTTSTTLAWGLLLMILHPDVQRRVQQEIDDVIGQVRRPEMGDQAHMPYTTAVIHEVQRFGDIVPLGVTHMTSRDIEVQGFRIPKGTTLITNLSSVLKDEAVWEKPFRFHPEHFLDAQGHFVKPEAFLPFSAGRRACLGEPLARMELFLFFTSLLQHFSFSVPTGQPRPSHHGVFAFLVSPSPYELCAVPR

[16] = molecular target: Voltage-gated inwardly rectifying potassium channel KCNH2 (Homo sapiens, UniProt Q12809); assay: Inhibition of human ERG
Voltage-gated inwardly rectifying potassium channel KCNH2, sequence (Q12809 whole entry): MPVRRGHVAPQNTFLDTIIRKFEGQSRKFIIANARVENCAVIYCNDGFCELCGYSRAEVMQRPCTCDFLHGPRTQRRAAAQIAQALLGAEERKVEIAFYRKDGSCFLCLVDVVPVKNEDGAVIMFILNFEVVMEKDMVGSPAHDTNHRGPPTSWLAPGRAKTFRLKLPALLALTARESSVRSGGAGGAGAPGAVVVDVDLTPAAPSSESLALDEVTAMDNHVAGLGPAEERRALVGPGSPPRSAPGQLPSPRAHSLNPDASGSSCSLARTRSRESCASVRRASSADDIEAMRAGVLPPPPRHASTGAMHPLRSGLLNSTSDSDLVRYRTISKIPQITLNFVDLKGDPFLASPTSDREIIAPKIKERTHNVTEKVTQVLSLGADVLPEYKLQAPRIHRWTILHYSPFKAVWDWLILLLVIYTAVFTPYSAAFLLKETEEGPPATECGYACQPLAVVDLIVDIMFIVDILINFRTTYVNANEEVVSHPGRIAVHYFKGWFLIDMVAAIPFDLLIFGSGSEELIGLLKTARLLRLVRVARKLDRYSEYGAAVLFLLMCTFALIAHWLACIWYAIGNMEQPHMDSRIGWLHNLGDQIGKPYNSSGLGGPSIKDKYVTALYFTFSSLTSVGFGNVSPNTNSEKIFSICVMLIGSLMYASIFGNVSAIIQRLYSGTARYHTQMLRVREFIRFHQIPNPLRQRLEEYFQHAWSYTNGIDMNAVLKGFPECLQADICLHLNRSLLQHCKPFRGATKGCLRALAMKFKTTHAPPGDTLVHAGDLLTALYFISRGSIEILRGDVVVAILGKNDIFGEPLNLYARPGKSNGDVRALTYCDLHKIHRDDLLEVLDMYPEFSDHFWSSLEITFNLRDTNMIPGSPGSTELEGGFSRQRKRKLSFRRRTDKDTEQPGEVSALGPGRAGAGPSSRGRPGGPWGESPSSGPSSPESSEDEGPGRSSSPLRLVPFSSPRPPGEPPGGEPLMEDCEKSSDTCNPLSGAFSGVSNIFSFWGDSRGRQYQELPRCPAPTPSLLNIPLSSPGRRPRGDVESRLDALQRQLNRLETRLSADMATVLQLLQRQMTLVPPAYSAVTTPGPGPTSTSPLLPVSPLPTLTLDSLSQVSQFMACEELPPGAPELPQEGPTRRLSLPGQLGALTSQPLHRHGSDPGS

Cytochrome P450 2C9 = Cytochrome P450 2C9 (Homo sapiens, UniProt P11712); assay: Inhibition of CYP2C9 (unknown origin); type: ADME
Cytochrome P450 2C9, sequence (P11712 whole entry): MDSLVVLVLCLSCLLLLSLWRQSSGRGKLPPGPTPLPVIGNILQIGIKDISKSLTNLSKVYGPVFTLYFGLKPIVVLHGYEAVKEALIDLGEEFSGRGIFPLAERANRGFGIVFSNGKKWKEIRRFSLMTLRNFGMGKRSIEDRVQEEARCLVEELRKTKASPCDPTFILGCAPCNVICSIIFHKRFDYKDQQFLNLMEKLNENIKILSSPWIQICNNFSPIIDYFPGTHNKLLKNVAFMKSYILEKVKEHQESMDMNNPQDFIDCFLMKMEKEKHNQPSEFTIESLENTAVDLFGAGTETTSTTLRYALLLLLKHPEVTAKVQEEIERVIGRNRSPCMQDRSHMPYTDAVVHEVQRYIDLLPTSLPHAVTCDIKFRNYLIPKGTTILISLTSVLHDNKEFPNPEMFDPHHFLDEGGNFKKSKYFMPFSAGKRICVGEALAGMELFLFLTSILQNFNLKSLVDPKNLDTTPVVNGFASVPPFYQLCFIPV

[17] = molecular target: Sodium channel protein type 5 subunit alpha (Homo sapiens, UniProt Q14524); assay: Inhibition of Nav1.5 (unknown origin)
[18] = molecular target: Voltage-dependent L-type calcium channel subunit alpha-1C (Homo sapiens, UniProt Q13936); assay: Inhibition of Cav1.2 (unknown origin)
Voltage-dependent L-type calcium channel subunit alpha-1C, sequence (Q13936 whole entry): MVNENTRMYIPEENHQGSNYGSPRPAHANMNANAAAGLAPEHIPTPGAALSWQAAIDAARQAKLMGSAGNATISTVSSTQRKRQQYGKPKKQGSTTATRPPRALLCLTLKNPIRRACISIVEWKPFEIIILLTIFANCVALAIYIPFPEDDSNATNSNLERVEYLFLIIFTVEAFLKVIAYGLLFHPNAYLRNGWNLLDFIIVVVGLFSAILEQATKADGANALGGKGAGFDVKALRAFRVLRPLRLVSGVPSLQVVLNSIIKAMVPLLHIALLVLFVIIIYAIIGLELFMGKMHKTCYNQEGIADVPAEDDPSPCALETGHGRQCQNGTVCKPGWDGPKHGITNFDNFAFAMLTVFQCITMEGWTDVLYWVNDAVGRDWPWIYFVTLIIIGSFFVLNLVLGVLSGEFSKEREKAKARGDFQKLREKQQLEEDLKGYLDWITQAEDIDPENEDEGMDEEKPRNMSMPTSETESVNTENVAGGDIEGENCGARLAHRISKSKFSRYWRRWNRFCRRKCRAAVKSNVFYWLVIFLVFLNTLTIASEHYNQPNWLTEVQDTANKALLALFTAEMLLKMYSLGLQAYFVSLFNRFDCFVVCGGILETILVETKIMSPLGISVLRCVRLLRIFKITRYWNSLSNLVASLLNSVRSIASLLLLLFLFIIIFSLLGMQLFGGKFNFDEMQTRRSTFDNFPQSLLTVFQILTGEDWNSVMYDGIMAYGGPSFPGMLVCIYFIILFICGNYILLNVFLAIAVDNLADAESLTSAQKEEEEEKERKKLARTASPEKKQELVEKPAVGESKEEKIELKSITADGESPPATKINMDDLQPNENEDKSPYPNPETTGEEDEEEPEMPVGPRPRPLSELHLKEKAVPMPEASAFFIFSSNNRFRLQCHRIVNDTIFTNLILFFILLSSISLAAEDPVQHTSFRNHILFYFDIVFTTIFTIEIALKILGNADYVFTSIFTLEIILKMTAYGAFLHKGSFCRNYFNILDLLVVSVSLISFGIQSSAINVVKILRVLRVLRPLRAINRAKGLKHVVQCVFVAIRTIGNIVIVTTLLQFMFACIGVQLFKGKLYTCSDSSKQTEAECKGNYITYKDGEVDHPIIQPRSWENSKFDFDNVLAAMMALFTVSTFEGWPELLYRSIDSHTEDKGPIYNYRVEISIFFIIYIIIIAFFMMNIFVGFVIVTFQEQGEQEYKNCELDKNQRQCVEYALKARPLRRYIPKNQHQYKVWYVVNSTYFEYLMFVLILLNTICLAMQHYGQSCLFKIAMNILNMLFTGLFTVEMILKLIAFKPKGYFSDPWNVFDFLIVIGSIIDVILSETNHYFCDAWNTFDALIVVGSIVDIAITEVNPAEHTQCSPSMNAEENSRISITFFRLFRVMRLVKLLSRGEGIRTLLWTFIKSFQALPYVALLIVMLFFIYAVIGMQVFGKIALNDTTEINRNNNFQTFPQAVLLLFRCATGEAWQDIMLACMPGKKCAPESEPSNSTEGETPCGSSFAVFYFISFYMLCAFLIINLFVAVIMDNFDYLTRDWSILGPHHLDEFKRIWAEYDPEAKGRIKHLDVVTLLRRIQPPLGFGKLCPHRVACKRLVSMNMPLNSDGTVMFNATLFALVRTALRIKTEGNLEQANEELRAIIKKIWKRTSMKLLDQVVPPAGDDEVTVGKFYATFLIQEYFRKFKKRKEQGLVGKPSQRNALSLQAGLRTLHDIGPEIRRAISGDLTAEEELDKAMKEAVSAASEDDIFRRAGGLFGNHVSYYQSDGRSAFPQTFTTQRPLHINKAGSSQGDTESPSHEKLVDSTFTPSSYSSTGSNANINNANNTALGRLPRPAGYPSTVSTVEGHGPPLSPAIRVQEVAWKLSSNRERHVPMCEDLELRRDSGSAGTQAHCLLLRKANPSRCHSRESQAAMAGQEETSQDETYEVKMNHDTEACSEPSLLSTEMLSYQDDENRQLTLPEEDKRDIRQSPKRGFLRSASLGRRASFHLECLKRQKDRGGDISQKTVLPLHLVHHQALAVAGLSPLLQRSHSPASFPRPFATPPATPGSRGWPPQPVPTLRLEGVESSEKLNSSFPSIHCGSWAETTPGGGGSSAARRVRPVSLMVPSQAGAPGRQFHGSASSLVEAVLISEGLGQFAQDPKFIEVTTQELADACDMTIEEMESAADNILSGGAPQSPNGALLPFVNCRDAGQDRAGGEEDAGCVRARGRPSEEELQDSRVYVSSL

[19] = AUC in rat at 100 mg/kg; type: ADME, organism-based; set-up: dose 100 mg/kg; conditions: in vivo
Homo sapiens = species on record: Homo sapiens; assay: Selectivity index, ratio of IC50 for Inhibition of N-terminal His6 tagged recombinant full-length human PI3Kalpha/human recombinant full length p85alpha expressed in baculovirus infected Sf21 cells to IC50 for Inhibition of N-terminal His6 tagged recombinant full-length human PI3Kdelta/human recombinant full length p85alpha expressed in baculovirus infected Sf21 cells

half-life [1] [h]	Vdu [2] [L/kg]	Vd [3] [L/kg]	Vdu [4] [L/kg]	bioavailability [5] [%]	half-life [6] [h]	Vd [7] [L/kg]	solubility [8] [µM]	IC50 (cells) [µM]	Papp [9] [×10⁻⁶ cm/s]	bioavailability [10] [%]	CL [11] [mL/min/kg]	clearance [12] [mL/min/kg]	clearance [13] [mL/min/kg]	CL [14] [mL/min/kg]	Compound	further results
1.1	1	0.7	3.8	57	3	0.5	130 (≈ 66.1 µg/mL)	8.5	32	99	–	–	–	–	CCn1c(-c2cnc(C)nc2)nc2c(-c3ccc4c(c3)[C@@]3(CCCN3C(=O)C3CC3)C(=O)N4C)ncnc21	–
–	–	–	–	–	–	–	–	0.017	–	–	–	–	–	–	CCn1ncc(-c2nc3c(-c4ccc5c(c4)[C@](C)(CC4CC4)C(=O)N5)ncnc3n2C)c1C	–
–	–	–	–	–	–	–	–	3.1	–	–	–	–	–	–	Cn1cnc2c(-c3ccc4c(c3)[C@](C)(CC3CC3)C(=O)N4)ncnc21	–
2.8	2.1	1.7	3.3	–	2	1.3	160 (≈ 77.7 µg/mL)	–	24	–	18	7.4	8.1	16	CCn1c(-c2cnc(C)nc2)nc2c(-c3cnc4c(c3)[C@](C)(N3CC(C)(OC)C3)C(=O)N4)ncnc21	–
0.5	3.8	1.9	5.5	10	0.5	1.5	34 (≈ 16.8 µg/mL)	–	10	78	–	–	–	–	CCn1c(-c2cnc(C)nc2)nc2c(-c3ccc4c(c3)[C@@]3(CCCN3C(=O)C3CC3)C(=O)N4)ncnc21	–
0.6	6.5	1.9	6.3	28	1.8	2.8	120 (≈ 58.1 µg/mL)	–	27	–	–	–	–	–	CCn1c(-c2cnc(C)nc2)nc2c(-c3ccc4c(c3)[C@](C)(N3CC(C)(OC)C3)C(=O)N4)ncnc21	–
1.1	0.3	2.4	3.1	–	2	0.2	140 (≈ 64 µg/mL)	8.2	–	–	240	1.9	58	3	Cc1ncc(-c2nc3c(-c4cnc5c(c4)[C@](C)(N[C@H]4CCOC4)C(=O)N5)ncnc3n2C)cn1	–
1.6	8.7	3	6.3	58	1.4	2.9	130 (≈ 61.7 µg/mL)	–	27	25	89	39	28	–	CCn1c(-c2cnc(C)nc2)nc2c(-c3ccc4c(c3)[C@](C)(NCC(C)(C)F)C(=O)N4)ncnc21	–
1	3.5	2.4	6	–	1	1.7	–	–	–	–	99	24	27	250	CCn1c(-c2cnc(C)nc2)nc2c(-c3ccc4c(c3)[C@](C)(CC3CCO3)C(=O)N4)ncnc21 (stereo not given in full)	–
1.4	1.5	1.4	6.1	100	2	0.8	140 (≈ 69.2 µg/mL)	9.1	31	82	130	6.1	22	14	Cc1ncc(-c2nc3c(-c4ccc5c(c4)[C@@]4(CCCN4C(=O)C4CC4)C(=O)N5C)ncnc3n2C)cn1	IC50 (Cytochrome P450 2C8): > 50 µM; IC50 (Cytochrome P450 3A4): > 50 µM; AUC [15]: 490 µM·h; IC50 (Cytochrome P450 2D6): > 50 µM; IC50 [16]: > 30 µM; IC50 (Cytochrome P450 2C9): > 50 µM; IC50 [17]: > 30 µM; IC50 [18]: > 30 µM
0.6	–	2.4	7.3	–	–	–	130 (≈ 59.1 µg/mL)	–	30	–	930	–	66	–	CCn1c(-c2cnc(C)nc2)nc2c(-c3ccc4c(c3)[C@](C)(NC3CCC3)C(=O)N4)ncnc21	–
2.5	3.3	2.4	5	61	9.3	1.4	115 (≈ 54.7 µg/mL)	–	24	100	29	2.5	12	6	CCn1c(-c2cnc(C)nc2)nc2c(-c3cnc4c(c3)[C@](C)(NCC(C)(C)F)C(=O)N4)ncnc21	AUC [19]: 390 µM·h
3	–	2.1	3.1	–	–	–	140 (≈ 63.8 µg/mL)	–	25	–	–	–	–	–	CCn1c(-c2cnc(C)nc2)nc2c(-c3cnc4c(c3)[C@](C)(NC3CCC3)C(=O)N4)ncnc21	–
0.6	11	3.1	14	–	1	2.2	56 (≈ 26.2 µg/mL)	–	–	–	–	–	–	–	CCn1c(-c2cnc(C)nc2)nc2c(-c3ccc4c(c3)[C@@]3(CCCN3C(C)C)C(=O)N4)ncnc21	–
0.6	2.7	1.9	4.6	–	1.3	1.4	130 (≈ 62.5 µg/mL)	10	9	–	290	9.6	49	27	Cc1ncc(-c2nc3c(-c4ccc5c(c4)[C@@]4(CCCN4C(=O)C4CC4)C(=O)N5)ncnc3n2C)cn1	–
3	1.6	3.8	4.9	33	3.4	1.2	150 (≈ 70.7 µg/mL)	> 10	5.7	91	–	–	–	–	CCn1c(-c2cnc(C)nc2)nc2c(-c3cnc4c(c3)[C@](C)(N[C@H]3CCOC3)C(=O)N4)ncnc21	–
1.9	3.9	3.3	6.9	–	1.1	1.7	120 (≈ 57.4 µg/mL)	–	–	–	–	–	–	–	CCn1c(-c2cnc(C)nc2)nc2c(-c3ccc4c(c3)[C@](C)(NCC(C)(F)F)C(=O)N4)ncnc21	–
1.4	6.5	3.7	6.5	14	1.6	4.2	180 (≈ 84.7 µg/mL)	–	14	–	160	32	44	–	CCn1c(-c2cnc(C)nc2)nc2c(-c3ccc4c(c3)[C@](C)(N[C@H]3CCOC3)C(=O)N4)ncnc21	–
–	–	–	–	–	–	–	–	–	–	–	–	–	–	–	CCn1ncc(-c2nc3c(N4CCC(n5c(=O)[nH]c6ncccc65)CC4)ncnc3n2C)c1C	Ratio IC50 (Homo sapiens): 71
